Experimental data published in PubChem BioAssay (NCI).
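A five-concentration, 48-hour dose response in 96-well plates underlies each endpoint, interpolated linearly between surrounding concentrations. GI50 = concentration required for 50% inhibition of growth. TGI marks complete inhibition of growth.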

Key:
Experiment in all cases: NCI anticancer screen, dose series, 48 h
[1] = test system: CCRF-CEM leukemia
[2] = test system: HS 578T breast
[3] = test system: K-562 leukemia
[4] = test system: LOX IMVI melanoma
[5] = test system: MOLT-4 leukemia
[6] = test system: OVCAR-4 ovarian
[7] = test system: RPMI-8226 leukemia
[8] = test system: 786-0 renal
[9] = test system: A498 renal
[10] = test system: A549 NSCLC
[11] = test system: ACHN renal
[12] = test system: BT-549 breast
[13] = test system: CAKI-1 renal
[14] = test system: COLO 205 colon
[15] = test system: DU-145 prostate
[16] = test system: EKVX NSCLC
[17] = test system: HCC-2998 colon
[18] = test system: HCT-116 colon
[19] = test system: HCT-15 colon
[20] = test system: HL-60(TB) leukemia
[21] = test system: HOP-62 NSCLC
[22] = test system: HOP-92 NSCLC
[23] = test system: KM12 colon
[24] = test system: M14 melanoma
[25] = test system: MCF7 breast
[26] = test system: MDA-MB-435
[27] = test system: NCI-H226 lung
[28] = test system: NCI-H23 lung
[29] = test system: NCI-H522 lung
[30] = test system: NCI/ADR-RES ovarian
[31] = test system: OVCAR-3 ovarian
[32] = test system: OVCAR-8 ovarian
[33] = test system: RXF 393 renal
[34] = test system: SF-268 CNS
[35] = test system: SF-295 CNS
[36] = test system: SF-539 CNS
[37] = test system: SK-MEL-2 melanoma
[38] = test system: SK-MEL-28 melanoma
[39] = test system: SNB-19 CNS
[40] = test system: SNB-75 CNS
[41] = test system: T-47D breast
[42] = test system: TK-10 renal
[43] = test system: U251 CNS
[44] = test system: UACC-257 melanoma
[45] = test system: UACC-62 melanoma
[46] = test system: HT29 colon
[47] = test system: IGROV1 ovarian
[48] = test system: MDA-MB-231 breast
[49] = test system: NCI-H460 lung
[50] = test system: OVCAR-5 ovarian
[51] = test system: PC-3 prostate
[52] = test system: SK-MEL-5 melanoma
[53] = test system: SN12C renal
[54] = test system: SW-620 colon
[55] = test system: UO-31 renal
[56] = test system: SK-OV-3 ovarian

For `C#Cc1ccc(-n2c(/C=C/c3ccc(Cl)c(F)c3)nc3ncccc3c2=O)cc1`, the GI50 [1] was 0.29 µM, the TGI [1] was > 100 µM and the GI50 [2] was 0.419 µM. For the same molecule, the TGI [2] was > 100 µM, the GI50 [3] was 0.337 µM and the TGI [3] was > 100 µM. It also gave a GI50 [4] of 0.183 µM, a TGI [4] of 0.504 µM and a GI50 [5] of 0.546 µM. The TGI [5] was > 100 µM, the GI50 [6] was 0.27 µM and the TGI [6] was 1.03 µM. It also gave a GI50 [7] of 0.351 µM and a TGI [7] of 2.03 µM.
With `COc1cc2c(cc1OCCCCCOc1cc3c(cc1OC)C(=O)N1CCC[C@H]1C(=O)N3)N=C[C@@H]1CCCN1C2=O` the TGI [8] was 4.71 µM, the TGI [9] was 1.1 µM and the TGI [10] was > 100 µM. For the same molecule, the TGI [11] was 4.05 µM, the TGI [12] was 6.67 µM and the TGI [13] was 4.25 µM. The TGI [14] was 0.0509 µM, the TGI [15] was > 100 µM and the TGI [16] was 9.54 µM. The TGI [17] was 20.9 µM, the TGI [18] was > 100 µM and the TGI [19] was > 100 µM. It also gave a TGI [20] of 1.51 µM, a TGI [21] of 26.3 µM and a TGI [22] of 0.0973 µM. The TGI [2] was 4.17 µM, the TGI [23] was 37.1 µM and the TGI [4] was 0.997 µM. For the same molecule, the TGI [24] was 0.521 µM, the TGI [25] was 0.261 µM and the TGI [26] was 0.284 µM. For the same molecule, the TGI [27] was 0.75 µM, the TGI [28] was 1.89 µM and the TGI [29] was 0.0419 µM. For the same molecule, the TGI [30] was 33.1 µM, the TGI [31] was 0.575 µM and the TGI [6] was 0.716 µM. For the same molecule, the TGI [32] was 31.5 µM, the TGI [7] was 0.179 µM and the TGI [33] was 0.413 µM. It also gave a TGI [34] of 10.4 µM, a TGI [35] of 5.59 µM and a TGI [36] of 0.0562 µM. The TGI [37] was 0.666 µM, the TGI [38] was 0.332 µM and the TGI [39] was > 100 µM. For the same molecule, the TGI [40] was 0.0588 µM, the TGI [41] was > 100 µM and the TGI [42] was 0.253 µM. The TGI [43] was 0.51 µM, the TGI [44] was 0.707 µM and the TGI [45] was 0.193 µM.
In the case of `COC(=O)C1OC(O[C@H]2CCC3(C)C(CCC4(C)C3CC=C3C5CC(C)(C)CCC5(C(=O)O)CC[C@]34C)C2(C)C)C(O)C(OC2OC(CO)C(O)C(O)C2O)C1O` (stereo not given in full), the GI50 [8] is reported as 6.36 µM, the TGI [8] is reported as 11.6 µM and the GI50 [10] is reported as 7.22 µM. The TGI [10] was 19.2 µM, the GI50 [11] was 5.99 µM and the TGI [11] was 10.7 µM. For the same molecule, the GI50 [12] was 6.93 µM, the TGI [12] was 15 µM and the GI50 [13] was 12.2 µM. The TGI [13] was > 33.3 µM, the GI50 [1] was 5.79 µM and the TGI [1] was 13.1 µM. It also gave a GI50 [14] of 8.64 µM, a TGI [14] of 25.3 µM and a GI50 [16] of 6.59 µM. It also gave a TGI [16] of 12.9 µM, a GI50 [17] of 7.14 µM and a TGI [17] of 12.4 µM. For the same molecule, the GI50 [18] was 6.39 µM, the TGI [18] was 11.5 µM and the GI50 [19] was 6.57 µM. For the same molecule, the TGI [19] was 13.2 µM, the GI50 [20] was 6.92 µM and the TGI [20] was 18.2 µM. It also gave a GI50 [21] of 6.21 µM, a TGI [21] of 11.6 µM and a GI50 [22] of 7.12 µM. For the same molecule, the TGI [22] was 14.5 µM, the GI50 [2] was 8.77 µM and the TGI [2] was 21.6 µM. For the same molecule, the GI50 [46] was 12.4 µM, the TGI [46] was > 33.3 µM and the GI50 [47] was 20.1 µM. For the same molecule, the TGI [47] was > 33.3 µM, the GI50 [3] was 8.17 µM and the TGI [3] was 26.6 µM. The GI50 [23] was 8.83 µM, the TGI [23] was 28.9 µM and the GI50 [4] was 6.27 µM. It also gave a TGI [4] of 11.7 µM, a GI50 [24] of 6.22 µM and a TGI [24] of 11.5 µM. It also gave a GI50 [25] of 9.92 µM, a TGI [25] of 26.4 µM and a GI50 [48] of 7.28 µM. For the same molecule, the TGI [48] was 13.5 µM, the GI50 [26] was 13.3 µM and the TGI [26] was > 33.3 µM. For the same molecule, the GI50 [5] was 2.17 µM, the TGI [5] was 13.4 µM and the GI50 [27] was 6.18 µM. The TGI [27] was 12.2 µM, the GI50 [28] was 6.46 µM and the TGI [28] was 11.9 µM. The GI50 [49] was 11.5 µM, the TGI [49] was > 33.3 µM and the GI50 [29] was 10.5 µM. It also gave a TGI [29] of 29 µM, a GI50 [30] of 7.24 µM and a TGI [30] of 13.5 µM. The GI50 [31] was 13.9 µM, the TGI [31] was > 33.3 µM and the GI50 [50] was 7.31 µM. It also gave a TGI [50] of 13.5 µM, a GI50 [32] of 9.96 µM and a TGI [32] of 27.6 µM. The GI50 [51] was 6.43 µM, the TGI [51] was 11.8 µM and the GI50 [33] was 11.3 µM. The TGI [33] was > 33.3 µM, the GI50 [34] was 7.56 µM and the TGI [34] was 17.1 µM. For the same molecule, the GI50 [35] was 11.8 µM, the TGI [35] was > 33.3 µM and the GI50 [37] was 11.9 µM. For the same molecule, the TGI [37] was > 33.3 µM, the GI50 [38] was 10.2 µM and the TGI [38] was 24.1 µM. For the same molecule, the GI50 [52] was 6.14 µM, the TGI [52] was 11.4 µM and the GI50 [53] was 6.34 µM. For the same molecule, the TGI [53] was 11.4 µM, the GI50 [39] was 6.82 µM and the TGI [39] was 15.5 µM. The GI50 [54] was 7.28 µM, the TGI [54] was 16.7 µM and the GI50 [41] was 8.16 µM. For the same molecule, the TGI [41] was 17.2 µM, the GI50 [42] was 7.22 µM and the TGI [42] was 14.2 µM. For the same molecule, the GI50 [43] was 6.08 µM, the TGI [43] was 10.9 µM and the GI50 [44] was 6.89 µM. The TGI [44] was 16.1 µM, the GI50 [45] was 6.23 µM and the TGI [45] was 11.7 µM. For the same molecule, the GI50 [55] was > 33.3 µM and the TGI [55] was > 33.3 µM.
With `CC(C)(C)OC(=O)NC(C)(C)C(=O)NCCC(=O)O` the TGI [8] was > 100 µM, the TGI [9] was > 100 µM and the TGI [10] was > 100 µM. The TGI [11] was > 100 µM, the TGI [12] was > 100 µM and the TGI [13] was > 100 µM. For the same molecule, the TGI [1] was > 100 µM, the TGI [14] was > 100 µM and the TGI [16] was > 100 µM. The TGI [19] was > 100 µM, the TGI [21] was > 100 µM and the TGI [2] was > 100 µM. The TGI [46] was > 100 µM, the TGI [47] was > 100 µM and the TGI [3] was > 100 µM. The TGI [23] was > 100 µM, the TGI [4] was > 100 µM and the TGI [24] was > 100 µM. For the same molecule, the TGI [25] was > 100 µM, the TGI [48] was > 100 µM and the TGI [26] was > 100 µM. For the same molecule, the TGI [5] was > 100 µM, the TGI [27] was > 100 µM and the TGI [28] was > 100 µM. For the same molecule, the TGI [49] was > 100 µM, the TGI [29] was > 100 µM and the TGI [30] was > 100 µM. The TGI [31] was > 100 µM, the TGI [6] was > 100 µM and the TGI [50] was > 100 µM. For the same molecule, the TGI [32] was > 100 µM, the TGI [51] was > 100 µM and the TGI [7] was > 100 µM. For the same molecule, the TGI [33] was > 100 µM, the TGI [34] was > 100 µM and the TGI [35] was > 100 µM. For the same molecule, the TGI [36] was > 100 µM, the TGI [37] was > 100 µM and the TGI [38] was > 100 µM. For the same molecule, the TGI [52] was > 100 µM, the TGI [56] was > 100 µM and the TGI [53] was > 100 µM. For the same molecule, the TGI [39] was > 100 µM, the TGI [40] was > 100 µM and the TGI [54] was > 100 µM. For the same molecule, the TGI [41] was > 100 µM, the TGI [42] was > 100 µM and the TGI [43] was > 100 µM. For the same molecule, the TGI [44] was > 100 µM, the TGI [45] was > 100 µM and the TGI [55] was > 100 µM.
